Common to all, as to format: in vivo
The subject of assay [1] is Alopecurus myosuroides. Put plainly: Pre-emergence herbicidal effect against ALOMY. The settings on record: 1280 g/ha, visual score after 3 weeks, 100% = plants have died, 0% = like control plants. In outline: (§1)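 Percent herbicidal activity (100% = dead, 0% = as control) was rated by eye 3 weeks post-application in greenhouse pots of sandy loam, with treatment sprayed onto the covering soil before emergence.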

Assay [2] concerns Digitaria sanguinalis. Put plainly: Pre-emergence herbicidal effect against DIGSA. The settings on record: 1280 g/ha, visual score after 3 weeks, 100% = plants have died, 0% = like control plants. The procedure, abridged: as §1
Assay [3] deals with Echinochloa crus-galli. Put plainly: Pre-emergence herbicidal effect against ECHCG. The settings on record: 1280 g/ha, visual score after 3 weeks, 100% = plants have died, 0% = like control plants. In outline: as §1
The subject of assay [4] is Lolium rigidum. Put plainly: Pre-emergence herbicidal effect against LOLRI. To be noted: 1280 g/ha, visual score after 3 weeks, 100% = plants have died, 0% = like control plants. The procedure, abridged:
as §1

In assay [5] the test system is Poa annua. Kind of assay: Pre-emergence herbicidal effect against POAAN. To be noted: 1280 g/ha, visual score after 3 weeks, 100% = plants have died, 0% = like control plants. The procedure, abridged: as §1
Assay [6] deals with Setaria viridis. Put plainly: Pre-emergence herbicidal effect against SETVI. To be noted: 1280 g/ha, visual score after 3 weeks, 100% = plants have died, 0% = like control plants. The procedure, abridged:
as §1

Assay [7] concerns Abutylon threophrasti. Kind of assay: Pre-emergence herbicidal effect against ABUTH. To be noted: 1280 g/ha, visual score after 3 weeks, 100% = plants have died, 0% = like control plants. The source says: (§2) 1. Pre-emergence herbicidal effect and crop plant compatibility Seeds of monocotyledonous and dicotyledonous weed plants and crop plants are laid out in sandy loam soil in wood-fibre pots and covered with soil. The compounds of the invention, formulated in the form of wettable powders (WP) or as emulsion concentrates (EC), are then applied to the surface of the covering soil as aqueous suspension or emulsion at a water application rate equating to 600 to 800 L/ha with addition of 0.2% wetting agent. After the treatment, the pots are placed in a greenhouse and kept under good growth conditions for the trial plants. The damage to the test plants is scored visually after a test period of 3 weeks by comparison with untreated controls (herbicidal activity in percent (%): 100% activity=the plants have died, 0% activity=like control plants). [table]

Assay [8] deals with Bassia scoparia. Kind of assay: Pre-emergence herbicidal effect against KCHSC. The settings on record: 1280 g/ha, visual score after 3 weeks, 100% = plants have died, 0% = like control plants.
From the text: as §2

The test system of assay [9] is Tripleurospermum inodorum. Put plainly: Pre-emergence herbicidal effect against MATIN. The settings on record: 1280 g/ha, visual score after 3 weeks, 100% = plants have died, 0% = like control plants. In outline: as §1
Assay [10] deals with Stellaria media. Put plainly: Pre-emergence herbicidal effect against STEME. The settings on record: 1280 g/ha, visual score after 3 weeks, 100% = plants have died, 0% = like control plants. In outline:
as §1

Assay [11] relates to Veronica persica. Kind of assay: Pre-emergence herbicidal effect against VERPE. The settings on record: 1280 g/ha, visual score after 3 weeks, 100% = plants have died, 0% = like control plants. In outline: as §1
Assay [12] deals with Alopecurus myosuroides. Kind of assay: Post-emergence herbicidal effect against ALOMY. To be noted: 1280 g/ha, visual score after about 3 weeks, 100% = plants have died, 0% = like control plants. The procedure, abridged:
(§3)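 Percent herbicidal effect, judged visually against untreated plants about 3 weeks after treatment, where 100% means dead plants. Treatment was a foliar spray of WP or EC formulations (600 to 800 l/ha water, 0.2% wetting agent) on one-leaf-stage plants raised in sandy loam.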

Assay [13] has as its system Digitaria sanguinalis. Kind of assay: Post-emergence herbicidal effect against DIGSA. To be noted: 1280 g/ha, visual score after about 3 weeks, 100% = plants have died, 0% = like control plants. In outline: as §3
In assay [14] the test system is Echinochloa crus-galli. Put plainly: Post-emergence herbicidal effect against ECHCG. The settings on record: 1280 g/ha, visual score after about 3 weeks, 100% = plants have died, 0% = like control plants. The procedure, abridged: as §3
For assay [15], the system named is Lolium rigidum. Put plainly: Post-emergence herbicidal effect against LOLRI. To be noted: 1280 g/ha, visual score after about 3 weeks, 100% = plants have died, 0% = like control plants. The method, then: [table] 2. Post-emergence herbicidal effect and crop plant compatibility Seeds of monocotyledonous and dicotyledonous weed and crop plants are laid out in sandy loam soil in wood-fibre pots, covered with soil and cultivated in a greenhouse under good growth conditions. 2 to 3 weeks after sowing, the test plants are treated at the one-leaf stage. The compounds of the invention, formulated in the form of wettable powders (WP) or as emulsion concentrates (EC), are then sprayed onto the green parts of the plants as aqueous suspension or emulsion at a water application rate equating to 600 to 800 l/ha with addition of 0.2% wetting agent. After the test plants have been left to stand in the greenhouse under optimal growth conditions for about 3 weeks, the action of the preparations is assessed visually in comparison to untreated controls (herbicidal action in percent (%): 100% activity=the plants have died, 0% activity=like control plants).

The test system of assay [16] is Poa annua. Put plainly: Post-emergence herbicidal effect against POAAN. To be noted: 1280 g/ha, visual assessment about 3 weeks after treatment, 100% = plants have died, 0% = like control plants. The procedure, abridged: as §3
The subject of assay [17] is Setaria viridis. Put plainly: Post-emergence herbicidal effect against SETVI. The settings on record: 1280 g/ha, visual assessment about 3 weeks after treatment, 100% = plants have died, 0% = like control plants. The procedure, abridged:
as §3

For assay [18], the system named is Abutylon threophrasti. Kind of assay: Post-emergence herbicidal effect against ABUTH. To be noted: 1280 g/ha, visual assessment about 3 weeks after treatment, 100% = plants have died, 0% = like control plants. The procedure, abridged: as §3
In assay [19] the test system is Bassia scoparia. Kind of assay: Post-emergence herbicidal effect against KCHSC. To be noted: 1280 g/ha, visual assessment about 3 weeks after treatment, 100% = plants have died, 0% = like control plants. In outline: as §3
The subject of assay [20] is Tripleurospermum inodorum. Kind of assay: Post-emergence herbicidal effect against MATIN. The settings on record: 1280 g/ha, visual assessment about 3 weeks after treatment, 100% = plants have died, 0% = like control plants. In outline:
as §3

Assay [21] concerns Stellaria media. Kind of assay: Post-emergence herbicidal effect against STEME. The settings on record: 1280 g/ha, visual assessment about 3 weeks after treatment, 100% = plants have died, 0% = like control plants. The procedure, abridged: as §3
The subject of assay [22] is Veronica persica. Kind of assay: Post-emergence herbicidal effect against VERPE. The settings on record: 1280 g/ha, visual assessment about 3 weeks after treatment, 100% = plants have died, 0% = like control plants. The procedure, abridged: as §3
For assay [23], the system named is Amaranthus retroflexus. Put plainly: Pre-emergence herbicidal effect against AMARE. The settings on record: 1280 g/ha, visual score after 3 weeks, 100% = plants have died, 0% = like control plants. The procedure, abridged:
as §1

Assay [24] relates to Amaranthus retroflexus. Put plainly: Post-emergence herbicidal effect against AMARE. The settings on record: 1280 g/ha, visual assessment about 3 weeks after treatment, 100% = plants have died, 0% = like control plants. In outline:
as §3

SMILES strings stand for the structures.

As for `O=C(O)CSc1nn(-c2ccccc2F)c(-c2ccc(F)c(F)c2)c1Cl` [Example I-014], in the assay with Alopecurus myosuroides [1], the “Pre-emergence action against ALOMY” value is recorded as 100%. Also, the “Pre-emergence action against DIGSA” value with Digitaria sanguinalis [2] is given as 100%. For the same compound, the “Pre-emergence action against ECHCG” value with Echinochloa crus-galli [3] is on record as 90%. Further, the “Pre-emergence action against LOLRI” value with Lolium rigidum [4] is listed as 100%. Further, the “Pre-emergence action against POAAN” value in the assay with Poa annua [5] is listed as 100%. Further, the “Pre-emergence action against SETVI” value with Setaria viridis [6] is listed as 100%. In the assay on Abutylon threophrasti [7], the “Pre-emergence action against ABUTH” value amounted to 100%. Further, the “Pre-emergence action against KCHSC” value in the assay on Bassia scoparia [8] stood at 90%. Besides, in assay [9], the “Pre-emergence action against MATIN” value is 100%. In addition, the “Pre-emergence action against STEME” value with Stellaria media [10] is given as 100%. Moreover, the “Pre-emergence action against VERPE” value with Veronica persica [11] stood at 100%. Also, in the assay with Alopecurus myosuroides [12], the “Post-emergence action against ALOMY” value worked out at 100%. In addition, the “Post-emergence action against DIGSA” value in the assay with Digitaria sanguinalis [13] came to 100%. Also, in the assay on Echinochloa crus-galli [14], the “Post-emergence action against ECHCG” value is on record as 90%. Further, the “Post-emergence action against LOLRI” value in the assay on Lolium rigidum [15] turned out to be 90%. Besides, in the assay with Poa annua [16], the “Post-emergence action against POAAN” value is 100%. The “Post-emergence action against SETVI” value in the assay on Setaria viridis [17] is reported as 90%. Further, the “Post-emergence action against ABUTH” value in the assay on Abutylon threophrasti [18] was found to be 90%. Moreover, the “Post-emergence action against KCHSC” value in the assay with Bassia scoparia [19] is recorded as 100%. For the same compound, the “Post-emergence action against MATIN” value in assay [20] is recorded as 100%. Further, the “Post-emergence action against STEME” value in the assay on Stellaria media [21] came to 100%. In the assay on Veronica persica [22], the “Post-emergence action against VERPE” value worked out at 90%.

As to `O=C(O)CSc1nn(-c2ccccc2F)c(-c2cncc(F)c2)c1Br` [II-005], in the assay with Alopecurus myosuroides [1], the “Pre-emergence action against ALOMY” value was 100%. The “Pre-emergence action against DIGSA” value in the assay with Digitaria sanguinalis [2] came out at 100%. Besides, the “Pre-emergence action against ECHCG” value with Echinochloa crus-galli [3] is 100%. The “Pre-emergence action against LOLRI” value in the assay on Lolium rigidum [4] was 100%. Further, the “Pre-emergence action against POAAN” value in the assay on Poa annua [5] is 100%. Also, the “Pre-emergence action against SETVI” value in the assay with Setaria viridis [6] is reported as 100%. Besides, the “Pre-emergence action against ABUTH” value in the assay with Abutylon threophrasti [7] was 90%. The “Pre-emergence action against AMARE” value in the assay with Amaranthus retroflexus [23] is recorded as 100%. Besides, the “Pre-emergence action against KCHSC” value with Bassia scoparia [8] was found to be 90%. Also, the “Pre-emergence action against MATIN” value in assay [9] amounted to 100%. Moreover, the “Pre-emergence action against STEME” value in the assay with Stellaria media [10] worked out at 100%. Besides, the “Pre-emergence action against VERPE” value in the assay on Veronica persica [11] is on record as 100%. For the same compound, the “Post-emergence action against ALOMY” value with Alopecurus myosuroides [12] is recorded as 100%. Also, the “Post-emergence action against DIGSA” value in the assay on Digitaria sanguinalis [13] turned out to be 100%. In addition, the “Post-emergence action against ECHCG” value in the assay with Echinochloa crus-galli [14] turned out to be 100%. Also, in the assay with Lolium rigidum [15], the “Post-emergence action against LOLRI” value stood at 90%. Also, the “Post-emergence action against POAAN” value in the assay with Poa annua [16] stood at 100%. Also, the “Post-emergence action against SETVI” value in the assay with Setaria viridis [17] amounted to 100%. The “Post-emergence action against ABUTH” value in the assay with Abutylon threophrasti [18] is listed as 90%. Further, in the assay on Amaranthus retroflexus [24], the “Post-emergence action against AMARE” value is 90%. The “Post-emergence action against KCHSC” value in the assay on Bassia scoparia [19] amounted to 90%. Besides, in assay [20], the “Post-emergence action against MATIN” value is given as 100%. Moreover, in the assay with Stellaria media [21], the “Post-emergence action against STEME” value is recorded as 100%. For the same compound, the “Post-emergence action against VERPE” value with Veronica persica [22] worked out at 100%.

In the case of `COC(=O)CCNC(=O)CSc1nn(-c2ccccc2F)c(-c2cncc(F)c2)c1Br` [VII-010], in the assay with Alopecurus myosuroides [1], the “Pre-emergence action against ALOMY” value is listed as 90%. Further, the “Pre-emergence action against ECHCG” value with Echinochloa crus-galli [3] was 90%. Besides, the “Pre-emergence action against LOLRI” value in the assay with Lolium rigidum [4] turned out to be 100%. For the same compound, the “Pre-emergence action against POAAN” value in the assay on Poa annua [5] worked out at 100%. Further, the “Pre-emergence action against SETVI” value in the assay with Setaria viridis [6] is 100%. In the assay with Bassia scoparia [8], the “Pre-emergence action against KCHSC” value is on record as 90%. Further, in [9], the “Pre-emergence action against MATIN” value was 100%. Besides, the “Pre-emergence action against STEME” value in the assay with Stellaria media [10] is recorded as 90%. Moreover, the “Pre-emergence action against VERPE” value in the assay with Veronica persica [11] was 100%. Besides, the “Post-emergence action against ALOMY” value with Alopecurus myosuroides [12] was 90%. Besides, the “Post-emergence action against ECHCG” value in the assay on Echinochloa crus-galli [14] is recorded as 90%. Also, the “Post-emergence action against LOLRI” value in the assay with Lolium rigidum [15] is recorded as 90%. Also, the “Post-emergence action against POAAN” value in the assay with Poa annua [16] was found to be 100%. The “Post-emergence action against SETVI” value in the assay with Setaria viridis [17] is 90%. Also, the “Post-emergence action against ABUTH” value in the assay on Abutylon threophrasti [18] was determined as 90%. The “Post-emergence action against KCHSC” value in the assay on Bassia scoparia [19] turned out to be 90%. Also, the “Post-emergence action against MATIN” value in [20] was found to be 90%. In the assay with Veronica persica [22], the “Post-emergence action against VERPE” value stood at 90%.

Values taken from patent publication US20230126893A1, “[(1,4,5-TRISUBSTITUTED-1H-PYRAZOL-3-YL)SULFANYL]ACETIC ACID DERIVATIVES, SALTS THEREOF, AND USE THEREOF AS ACTIVE HERBICIDAL INGREDIENTS” (BAYER AKTIENGESELLSCHAFT, priority 2020, published 2023).
